Measured values from patent US20240158379A1, “NOVEL BENZOFURAN, BENZOTHIOPHENE, AND INDOLE ANALOGS THAT INHIBIT THE FORMATION OF TAU OLIGOMERS AND THEIR METHOD OF USE” (OLIGOMERIX INC., priority 2016, published 2024).

Biological target: recombinant human tau 4R2N (Homo sapiens (Human), UniProt P10636)
Assay: AlphaLisa Assay (ALA), primary screen for inhibition of tau oligomer formation
Format: biochemical
Settings: tau target 300 nM, Tris-HCl pH 7.4, 4 hours room temperature, compound 0.098 uM-50 uM
Text: Bacterial recombinant human tau 4R2N (the largest isoform of tau in the central nervous system, 441 amino acids in length, Seq ID 1) constructs with either 6×-His or StrepII N-terminal epitope tags were purified from bacterial lysate using denaturing conditions to prepare tau in its monomeric form.
ALA Assay: AlphaLisa Assay (ALA) was used as a primary screen for identifying compounds that inhibit tau oligomer formation. It is a bead based assay that only gives signal when the beads are in close proximity to each other. When the tau monomer (target) is incubated it forms higher order aggregates (dimer, trimer, tetramer, etc) so that when the donor and acceptor beads bind to the epitope tags of tau they are in close proximity and generate signal.
Tau target (equal mixture of each construct at 300 nM) was prepared in buffer (Tris-HCl pH 7.4) and was incubated in 96-well plates at room temperature for 4 hours with vehicle control (DMSO) and a dose range of a compound of the disclosure (0.098 uM-50 uM). AlphaLisa acceptor beads & donor beads with ligands to the epitope tags (Perkin Elmer) were diluted (final 20 ug/mL per bead) in bead buffer (25 mM HEPES pH 7.4, 100 mM NaCl, 0.1% Tween-20), added to the wells and incubated 1 hour at room temperature. The positive control (non-incubated target) & blank (no tau) were prepared and mixed with beads in bead buffer and the plate was read immediately using the EnVision plate reader (Perkin Elmer).

recombinant human tau 4R2N, sequence (P10636 other isoform, or with tags, fused parts or gaps): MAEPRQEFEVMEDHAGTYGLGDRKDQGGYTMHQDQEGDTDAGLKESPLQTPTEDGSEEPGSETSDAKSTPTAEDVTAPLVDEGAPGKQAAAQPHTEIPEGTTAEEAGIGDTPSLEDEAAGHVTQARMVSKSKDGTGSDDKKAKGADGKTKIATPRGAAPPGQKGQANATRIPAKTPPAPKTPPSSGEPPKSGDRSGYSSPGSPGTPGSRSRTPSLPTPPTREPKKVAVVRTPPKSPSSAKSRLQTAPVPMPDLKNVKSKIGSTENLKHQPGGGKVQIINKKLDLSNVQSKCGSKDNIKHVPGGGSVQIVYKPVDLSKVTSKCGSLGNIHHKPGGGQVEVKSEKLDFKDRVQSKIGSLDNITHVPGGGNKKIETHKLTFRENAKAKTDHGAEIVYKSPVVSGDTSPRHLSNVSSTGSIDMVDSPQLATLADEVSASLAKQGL

| SMILES | IC50 [µM] |
| --- | --- |
| CC(=O)CCc1oc2ccc(-c3cccs3)cc2c1-c1ccc(C)o1 [Example 8, 4-(3-(5-Methylfuran-2-yl)-5-(thiophen-2-yl)benzofuran-2-yl)butan-2-one] | 1.31 |
| CC(=O)CCc1oc2ccc(Br)cc2c1CCC(C)C [Example 9, 4-[5-Bromo-3-(3-methyl-butyl)-benzofuran-2-yl]-butan-2-one] | > 10 |
| Cc1ccc(-c2c(CCC(=O)O)oc3ccc(Br)cc23)o1 [Example 12, 3-[5-Bromo-3-(5-methyl-furan-2-yl)-benzofuran-2-yl]-propionic acid] | 6.09 |
| Cc1ccc(-c2c(CCC(=O)N3CCC(O)CC3)oc3ccc(Br)cc23)o1 [Example 13, 3-[5-Bromo-3-(5-methyl-furan-2-yl)-benzofuran-2-yl]-1-(4-hydroxy-piperidin-1-yl)-propan-1-one] | 5.78 |
| CC(=O)CCc1oc2ccc(-c3ccncc3)cc2c1-c1ccc(Cl)s1 [Example 18, 4-(3-(5-Chlorothiophen-2-yl)-5-(pyridin-4-yl)benzofuran-2-yl)butan-2-one] | 7.67 |
| COc1cc(-c2ccc3oc(CCC(C)=O)c(-c4ccc(Cl)s4)c3c2)ccn1 [Example 19, 4-(3-(5-chlorothiophen-2-yl)-5-(2-methoxypyridin-4-yl)benzofuran-2-yl)butan-2-one] | 20.8 |
| CC(=O)CCc1oc2ccc(-c3ccc(Cl)nc3)cc2c1-c1ccc(Cl)s1 [Example 20, 4-(5-(6-Chloropyridin-3-yl)-3-(5-chlorothiophen-2-yl)benzofuran-2-yl)butan-2-one] | 15.4 |
| CC(=O)CCc1oc2cc(Br)ccc2c1-c1ccc(C)o1 [Example 21, 4-(6-Bromo-3-(5-methylfuran-2-yl)benzofuran-2-yl)butan-2-one] | 1.17 |
| CC(=O)CCc1oc2cc(-c3ccncc3)ccc2c1-c1ccc(C)o1 [Example 22, 4-(3-(5-Methylfuran-2-yl)-6-(pyridin-4-yl)benzofuran-2-yl)butan-2-one] | 3.42 |
| CC(=O)CCc1oc2ccc(Br)cc2c1CCc1ccc(C)cc1 [Example 26, 4-(5-Bromo-3-(2-p-tolylethyl)benzofuran-2-yl)butan-2-one] | > 10 |
| COc1ccc(-c2ccc3c(-c4ccc(C)o4)c(CCC(C)=O)oc3c2)cn1 [Example 28, 4-(6-(6-Methoxypyridin-3-yl)-3-(5-methylfuran-2-yl)benzofuran-2-yl)butan-2-one] | 2.48 |
